# Source: patent US20060183801A1, “Method of preventing or treating breast, prostate and/or cervical cancer with n, n-dimethylglycine” (FoodScience Corporation, priority 2002, published 2006)
# What was measured:
# [1] = test system: TNF-α secretion in THP-1 cell line; assay: Cytokine bioassay: TNF-α secretion by LPS-stimulated THP-1 cells (L-929 indicator cells); assay type: cell-based; conditions: 100 mM DMG, 24 h, measured by L-929 cells (FIG. 2)
# Method: (§1) Cytokine bioassays utilizing cell proliferation assays were performed to assess modulation of inflammatory cytokine production by DMG (House-Development in biological Standardization 1999 (97) 13-19). Supernatants from cytokine producing cell lines (untreated control and DMG treated), were added to responder cell lines specific for that cytokine. Proliferation or inhibition of these responder/indicator cells signal the extent of cytokine secreted by the producer cell lines. The optimum cell number/well for each cell line was determined after a titration assay. All suspension producer cell lines such at THP-1, Jurkat E6-1, EL-4 and U-937 were plated on 48 well plates in a concentration of 5×10^6 cells/well, where as adherent producer cells such as LS174T were plated at a concentration of 5×10^5 cells/well. Suspension responder cell lines (CTLL-2 and 7TD-1) were used at a concentration of 1×10^6 cells/well in a 96 well plate, whereas the adherent responder cell lines (L-929 and A375.S2) were plated at a concentration of 3×10^4 cells/well and 4×10^4 cells/well respectively. THP-1 cells, which secrete Tumor Necrosis Factor-alpha (TNF-α), when stimulated with lipopolysaccharide (LPS), were treated with increasing concentrations of DMG for a period of 24 hours at 37° C. in a humidified 5% CO2 incubator. […] Samples are read at 4 hours using a BIO-RAD benchmark microplate reader at 490 nm. […]
# [2] = test system: IL-1 secretion in U-937 cell line; assay: Cytokine bioassay: IL-1 secretion by U-937 cells (A375.S2 indicator cells); assay type: cell-based; conditions: detected by decreased proliferation of A375.S2 (FIG. 3)
# Method: as §1
# [3] = test system: IL-2 secretion in Jurkat E6-1 cell line; assay: Cytokine bioassay: IL-2 secretion by Jurkat E6-1 cells (CTLL-2 responder cells); assay type: cell-based, human
# Method: as §1
# [4] = test system: IL-2 secretion in EL-4 cell line; assay: Cytokine bioassay: IL-2 secretion by EL-4 cells (CTLL-2 responder cells); assay type: cell-based, mouse
# Method: as §1
# [5] = test system: IL-6 secretion in LS 174T cell line; assay: Cytokine bioassay: IL-6 secretion by LS 174T cells (7TD1 responder cells); assay type: cell-based; conditions: 100 mM DMG, LS 174T (FIG. 6)
# Method: as §1
# [6] = test system: TNF alpha secretion in peripheral blood mononuclear cells; assay: Cytokine bioassay: TNF-α secretion by stimulated PBMC (L-929 indicator cells); assay type: cell-based; conditions: 100 mM DMG, PBMC stimulated with PMA and Ionomycin; L-929 indicator cells (FIG. 7)
# Method: (§2) Heparinized peripheral blood from healthy control volunteers was collected and layered onto room temperature (RT) polysucrose sodium diatriazoate (Histopaque 1077, Sigma Chemical Co.) in 15-ml conical tubes. These were centrifuged at 400×g for 30 minutes. Mononuclear cells were collected and washed in 10-ml phosphate buffered saline (PBS). Following a 10 min centrifugation and 250×g, the PBS were decanted and the wash step repeated. Cells were counted in a hemocytometer and adjusted to 2×10^6 cells/ml. These cells were later used in cytokine bioassays, Co-culture and in flow cytometry. Modulation of inflammatory cytokine production in Peripheral Blood Mononuclear Cells (PBMC) by DMG, was determined by the use of cytokine bioassays. Supernatants of DMG treated and untreated PBMC which produce cytokines (producers) on stimulation with mitogens (PMA and/or lonomycin), were added to responder cell lines specific for the respective cytokine. Proliferation or inhibition of these indicator cells signal the extent of cytokine secretion by the producer cell lines. The optimum cell number/well for each cell line was determined after a titration assay. PBMC were plated on 48 well plates in a concentration of 5×10^6 cells/well. […] Samples are read at 4 hours using a BIO-RAD benchmark microplate reader at 490 nm. […]
# [7] = test system: IL-1 secretion in peripheral blood mononuclear cells; assay: Cytokine bioassay: IL-1 secretion by stimulated PBMC (A375.S2 responder cells); assay type: cell-based; conditions: 100 mM DMG
# Method: as §2
# [8] = test system: IL-2 secretion in peripheral blood mononuclear cells; assay: Cytokine bioassay: IL-2 secretion by stimulated PBMC (HT-2 responder cells); assay type: cell-based; conditions: 100 mM DMG
# Method: as §2
# melanoma cells [9] = assay: Co-culture proliferation assay: DMG treated stimulated Jurkat E6-1 with melanoma cells; assay type: cell-based; conditions: PMA/Ionomycin stimulated Jurkat E6-1 in co-culture
# Method: (§3) A proliferation assay was designed to determine the ability of DMG treated cytokine producing cells to inhibit growth of melanoma cell lines, breast cancer cell lines, a prostate cancer cell line, and cervical cancer cell lines. The cytokine bioassays utilizing cell proliferation assays were performed to assess modulation of inflammatory cytokine production by DMG. Cytokine bioassays are well known in the art. (Thorpe R: Developments in Biological Standardization 1999, 97:61-71 and Mire-Sluis AR: Journal of Immunological Methods 1995, 187 (2):191-199)
# (§4) The cell lines and murine B16 as indicator cells were used to observe the modulating effects of DMG. The optimum cell number per well for each cell line was determined after titration assay. Stimulated and unstimulated cytokine producing cell lines (Jurkat e6-1, EL-4, MG-63 and U-937) were treated with DMG for 24 hours prior to culture with cancer cell lines. […]
# (§5) A proliferation assay was designed to determine the ability of DMG treated cytokine producing cells to inhibit growth of human breast cancer cell lines MCF-7, BT-20 and T47D, human prostrate cancer PC-3 cell line, human cervical cancer Caski and SiHa cell lines and melanoma cell lines. […] The optimum cell number/well for each cell line was determined after a titration assay. […]
# A375.S2 melanoma cells [10] = assay: Co-culture proliferation assay: DMG treated U-937 with A375.S2 melanoma cells; assay type: cell-based, human; conditions: DMG treated U-937 in co-culture
# Method: as §3, §4, §5
# melanoma cells [11] = assay: Co-culture proliferation assay: DMG treated stimulated MG-63 with melanoma cells; assay type: cell-based; conditions: DMG treated stimulated MG-63 (produces IFN-β) in co-culture
# Method: as §3, §4, §5
# A375.S2 melanoma cells [12] = assay: Co-culture proliferation assay: DMG treated PBMC with A375.S2 melanoma cells; assay type: cell-based, human
# Method: (§6) Heparinized peripheral blood from healthy control volunteers was collected and layered onto room temperature (RT) polysucrose sodium diatriazoate (Histopaque 1077, Sigma Chemical Co.) in 15-ml conical tubes. These were centrifuged at 400×g for 30 minutes. Mononuclear cells were collected and washed in 10-ml phosphate buffered saline (PBS). Following a 10 min centrifugation and 250×g, the PBS were decanted and the wash step repeated. Cells were counted in a hemocytometer and adjusted to 2×10^6 cells/ml. These cells were later used in cytokine bioassays, Co-culture and in flow cytometry.
# (§7) A proliferation assay was designed to determine the ability of DMG treated cytokine producing cells to inhibit growth of human breast cancer cell lines MCF-7, BT-20 and T47D, human prostrate cancer PC-3 cell line, human cervical cancer Caski and SiHa cell lines and melanoma cell lines. Three melanoma cell lines, human A375.S2 and Hs 294T, and murine B16 as indicator cells were used to observe the modulating effects of DMG. The optimum cell number/well for each cell line was determined after a titration assay. Stimulated and unstimulated cytokine producing cell lines (Jurkat E6-1, EL-4, MG-63 and U-937) were treated with DMG for 24 hr prior to culture with melanoma cells. Similarly, PBMC were also treated with DMG and cultured with melanoma cells. […]
# Hs 294T melanoma cells = assay: Co-culture proliferation assay: DMG treated PBMC with Hs 294T melanoma cells; assay type: cell-based; conditions: Homo sapiens; PBMC treated with 100 mM DMG, Hs 294T co-culture (FIG. 14); read-out: inhibitory effect over controls (melanoma inhibition by PBMC)
# Method: as §6, §7
# [13] = test system: T47D breast cancer cell line; assay: Co-culture proliferation assay: DMG treated Jurkat E6-1 with T47D breast cancer cells; assay type: cell-based, human; conditions: Jurkat E6-1 treated with DMG 24 hours prior to culture (FIG. 18)
# Method: as §3, §4, §5
# [14] = test system: MCF-7 breast cancer cells; assay: Co-culture proliferation assay: DMG treated Jurkat E6-1 with MCF-7 breast cancer cells; assay type: cell-based, human; conditions: Jurkat E6-1 treated with DMG 24 hours prior to culture (FIG. 17)
# Method: as §3, §4, §5
# [15] = test system: MCF-7 breast cancer cell line; assay: Co-culture proliferation assay: DMG treated stimulated PBMC with MCF-7 cells; assay type: cell-based, human; conditions: DMG treated stimulated PBMC in co-culture (FIG. 19)
# Method: as §6, §7
# [16] = test system: T47D breast cancer cell line; assay: Co-culture proliferation assay: DMG treated stimulated PBMC with T47D cells; assay type: cell-based, human; conditions: DMG treated stimulated PBMC in co-culture (FIG. 20)
# Method: as §6, §7
# [17] = test system: Caski human cervical carcinoma cells; assay: Co-culture proliferation assay: DMG treated Jurkat E6-1 with Caski cervical cells; assay type: cell-based; conditions: Jurkat E6-1 treated with DMG 24 hours prior to culture (FIG. 22-23)
# Method: as §3, §4, §5
# [18] = test system: SiHa human cervical carcinoma cells; assay: Co-culture proliferation assay: DMG treated Jurkat E6-1 with SiHa cervical cells; assay type: cell-based; conditions: Jurkat E6-1 treated with DMG 24 hours prior to culture (FIG. 24-25)
# Method: as §3, §4, §5
# [19] = test system: prostate adenocarcinoma cell line PC-3; assay: Co-culture proliferation assay: DMG treated stimulated PBMC with PC-3 prostate cells; assay type: cell-based, human; conditions: DMG treated stimulated PBMC in co-culture (FIG. 26)
# Method: as §6, §7
compound,measurement,setting,value
"CN(C)CC(=O)O [DMG, N,N-dimethylglycine]",increase of TNF-α levels over baseline control levels,[1],7%
same,increase of IL-1 secretion,[2]; 10 mM DMG,4.5%
same,increase of IL-1 secretion,[2]; 100 mM DMG,6.5%
same,increase of IL-2 secretion,"[3]; 10 mM DMG, Jurkat E6-1 (FIG. 4)",3%
same,increase of IL-2 levels (increase in proliferation of CTLL-2),"[3]; 100 mM DMG, Jurkat E6-1 supernatant (FIG. 4)",10%
same,increase of IL-2 secretion,"[4]; 10 mM DMG, EL-4 (FIG. 5)",2.5%
same,increase of IL-2 levels (increase in proliferation of CTLL-2),"[4]; 100 mM DMG, EL-4 supernatant (FIG. 5)",6%
same,increase of IL-6 production levels,[5],7%
same,increase of TNF-α over stimulated baseline controls,[6],9%
same,enhancement of IL-1 expression levels,[7],8%
same,enhancement of IL-2 expression levels,[8],10%
same,increased inhibition of melanoma cells over baseline stimulated control,melanoma cells [9],8%
same,decrease in the proliferation of A375.S2 cells,A375.S2 melanoma cells [10],30%
same,melanoma inhibition,melanoma cells [11],increased level of melanoma inhibition
same,proliferation decrease in melanoma cell growth over stimulated baseline control,"A375.S2 melanoma cells [12]; PBMC treated with 100 mM DMG, A375.S2 co-culture",17%
same,"A375.S2 proliferation, dose dependence",A375.S2 melanoma cells [12]; PBMC treated with increasing concentrations of DMG,Significant dose dependent reductions
same,inhibition at 100000 µM,Hs 294T melanoma cells,13%
same,inhibition of T47D cells,[13],typical dose dependent effect
same,inhibition of MCF-7 cells,[14],dose dependent effect
same,inhibition of MCF-7 cell line,[15],dose response inhibition
same,inhibition of T47D cell line,[16],dose response inhibition
same,inhibition of Caski cell line,[17],dose response inhibition
same,inhibition of SiHa cell line,[18],dose response inhibition
same,inhibition of PC-3 cell line,[19],dose response inhibition
